Test results taken from US20070010671A1, “Novel quinazoline derivatives and methods of treatment related to the use thereof” (priority 2003, published 2007).

biological target: MCH receptor (Homo sapiens, UniProt Q99705); test: High throughput functional screening FLIPR/FDSS6000: inhibition of MCH-evoked intracellular Ca2+ changes; format: cell-based; settings: class by percent of control at 10^−7 M or by IC50; read-out: class
Outline: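 Seed cells the day before, then load them with Fluo4-AM for one hour at 37° C and wash in HEPES-buffered HBSS, pH 7.4. Add compound for 3 min, then stimulate with 50 nM MCH. Monitor the calcium transient for 290 s.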

Row | SMILES | IC50 [nM]
1 | CN(C)c1nc(N[C@H]2CC[C@@H](C(=O)NCc3cccc(F)c3)CC2)nc2ccccc12 [Example 1157, cis-4-{[4-(dimethylamino)quinazolin-2-yl]amino}-N-(3-fluorobenzyl)cyclohexanecarboxamide] | < 50
2 | CN(C)c1nc(N[C@H]2CC[C@@H](C(=O)NCc3cc(F)ccc3F)CC2)nc2ccccc12 [Example 1158, cis-N-(2,5-difluorobenzyl)-4-{[4-(dimethylamino)quinazolin-2-yl]amino}cyclohexanecarboxamide] | < 50
3 | CN(C)c1nc(N[C@H]2CC[C@@H](C(=O)NCc3cccc(F)c3F)CC2)nc2ccccc12 [Example 1159, cis-N-(2,3-difluorobenzyl)-4-{[4-(dimethylamino)quinazolin-2-yl]amino}cyclohexanecarboxamide] | < 50
4 | CN(C)c1nc(N[C@H]2CC[C@@H](C(=O)NCc3cccc(Br)c3)CC2)nc2ccccc12 [Example 1160, cis-N-(3-bromobenzyl)-4-{[4-(dimethylamino)quinazolin-2-yl]amino}cyclohexanecarboxamide] | < 50
5 | CN(C)c1nc(N[C@H]2CC[C@@H](C(=O)NCc3ccc(F)c(Br)c3)CC2)nc2ccccc12 [Example 1161, cis-N-(3-bromo-4-fluorobenzyl)-4-{[4-(dimethylamino)quinazolin-2-yl]amino}cyclohexanecarboxamide] | < 50
6 | CN(C)c1nc(N[C@H]2CC[C@@H](C(=O)NCc3ccc(Br)cc3F)CC2)nc2ccccc12 [Example 1162, cis-N-(4-bromo-2-fluorobenzyl)-4-{[4-(dimethylamino)quinazolin-2-yl]amino}cyclohexanecarboxamide] | < 50
7 | CN(C)c1nc(N[C@H]2CC[C@@H](C(=O)NCc3cc(Br)ccc3F)CC2)nc2ccccc12 [Example 1163, cis-N-(5-bromo-2-fluorobenzyl)-4-{[4-(dimethylamino)quinazolin-2-yl]amino}cyclohexanecarboxamide] | < 50
8 | CN(C)c1nc(N[C@H]2CC[C@@H](C(=O)NCc3ccc(Cl)cc3F)CC2)nc2ccccc12 [Example 1164, cis-N-(4-chloro-2-fluorobenzyl)-4-{[4-(dimethylamino)quinazolin-2-yl]amino}cyclohexanecarboxamide] | < 50
9 | Cc1cccc(CNC(=O)[C@H]2CC[C@@H](Nc3nc(N(C)C)c4ccccc4n3)CC2)c1 [Example 1165, cis-4-{[4-(dimethylamino)quinazolin-2-yl]amino}-N-(3-methylbenzyl)cyclohexanecarboxamide] | < 50
10 | Cc1ccccc1CNC(=O)[C@H]1CC[C@@H](Nc2nc(N(C)C)c3ccccc3n2)CC1 [Example 1166, cis-4-{[4-(dimethylamino)quinazolin-2-yl]amino}-N-(2-methylbenzyl)cyclohexanecarboxamide] | < 50
11 | CN(C)c1nc(N[C@H]2CC[C@@H](C(=O)NCc3ccccc3OC(F)(F)F)CC2)nc2ccccc12 [Example 1167, cis-4-{[4-(dimethylamino)quinazolin-2-yl]amino}-N-[2-(trifluoromethoxy)benzyl]cyclohexanecarboxamide] | < 50
12 | CN(C)c1nc(N[C@H]2CC[C@@H](C(=O)NCc3ccc(F)c(F)c3F)CC2)nc2ccccc12 [Example 1169, cis-4-{[4-(dimethylamino)quinazolin-2-yl]amino}-N-(2,3,4-trifluorobenzyl)cyclohexanecarboxamide] | < 50
13 | CN(C)c1nc(N[C@H]2CC[C@@H](C(=O)NCc3cc(F)c(F)cc3F)CC2)nc2ccccc12 [Example 1170, cis-4-{[4-(dimethylamino)quinazolin-2-yl]amino}-N-(2,4,5-trifluorobenzyl)cyclohexanecarboxamide] | < 50
14 | CN(C)c1nc(N[C@H]2CC[C@@H](C(=O)NCc3cc(F)c(F)c(F)c3)CC2)nc2ccccc12 [Example 1171, cis-4-{[4-(dimethylamino)quinazolin-2-yl]amino}-N-(3,4,5-trifluorobenzyl)cyclohexanecarboxamide] | < 50
15 | CN(C)c1nc(N[C@H]2CC[C@@H](C(=O)NCc3c(F)ccc(F)c3F)CC2)nc2ccccc12 [Example 1172, cis-4-{[4-(dimethylamino)quinazolin-2-yl]amino}-N-(2,3,6-trifluorobenzy)cyclohexanecarboxamide] | < 50
16 | CN(C)c1nc(N[C@H]2CC[C@@H](C(=O)NCc3cc(F)cc(C(F)(F)F)c3)CC2)nc2ccccc12 [Example 1173, cis-4-{[4-(dimethylamino)quinazolin-2-yl]amino}-N-[3-fluoro-5-(trifluoromethyl)benzyl]cyclohexanecarboxamide] | < 50
17 | CN(C)c1nc(N[C@H]2CC[C@@H](C(=O)NCc3ccc(F)cc3C(F)(F)F)CC2)nc2ccccc12 [Example 1174, cis-4-{[4-(dimethylamino)quinazolin-2-yl]amino}-N-[4-fluoro-2-(trifluoromethyl)benzyl]cyclohexanecarboxamide] | < 50
18 | CN(C)c1nc(N[C@H]2CC[C@@H](C(=O)NCc3ccc(C(F)(F)F)cc3F)CC2)nc2ccccc12 [Example 1175, cis-4-{[4-(dimethylamino)quinazolin-2-yl]amino}-N-[2-fluoro-4-(trifluoromethyl)benzyl]cyclohexanecarboxamide] | < 50

Other lines, results leading:

Row | IC50 [nM] | SMILES
19 | < 50 | CN(C)c1nc(N[C@H]2CC[C@@H](C(=O)NCc3ccc(F)c(C(F)(F)F)c3)CC2)nc2ccccc12 [Example 1176, cis-4-{[4-(dimethylamino)quinazolin-2-yl]amino}-N-[4-fluoro-3-(trifluoromethyl)benzyl]cyclohexanecarboxamide]
20 | < 50 | CN(C)c1nc(N[C@H]2CC[C@@H](C(=O)NCc3cccc(C(F)(F)F)c3F)CC2)nc2ccccc12 [Example 1177, cis-4-{[4-(dimethylamino)quinazolin-2-yl]amino}-N-[2-fluoro-3-(trifluoromethyl)benzyl]cyclohexanecarboxamide]
21 | < 50 | CN(C)c1nc(N[C@H]2CC[C@@H](C(=O)NCc3ccc(Cl)c(C(F)(F)F)c3)CC2)nc2ccccc12 [Example 1178, cis-N-[4-chloro-3-(trifluoromethyl)benzyl]-4-{[4-(dimethylamino)quinazolin-2-yl]amino}cyclohexanecarboxamide]
22 | < 50 | CN(C)c1nc(N[C@H]2CC[C@@H](C(=O)NCc3c(F)cccc3Cl)CC2)nc2ccccc12 [Example 1179, cis-N-(2-chloro-6-fluorobenzyl)-4-{[4-(dimethylamino)quinazolin-2-yl]amino}cyclohexanecarboxamide]
23 | < 50 | CN(C)c1nc(N[C@H]2CC[C@@H](C(=O)NCc3ccc(F)c(Cl)c3)CC2)nc2ccccc12 [Example 1181, cis-N-(3-chloro-4-fluorobenzyl)-4-{[4-(dimethylamino)quinazolin-2-yl]amino}cyclohexanecarboxamide]
24 | < 50 | CN(C)c1nc(N[C@H]2CC[C@@H](C(=O)NCc3ccc(F)cc3Cl)CC2)nc2ccccc12 [Example 1182, cis-N-(2-chloro-4-fluorobenzyl)-4-{[4-(dimethylamino)quinazolin-2-yl]amino}cyclohexanecarboxamide]
25 | < 50 | CN(C)c1nc(N[C@H]2CC[C@@H](C(=O)NCc3cc(C(F)(F)F)ccc3Cl)CC2)nc2ccccc12 [Example 1183, cis-N-[2-chloro-5-(trifluoromethyl)benzyl]-4-{[4-(dimethylamino)quinazolin-2-yl]amino}cyclohexanecarboxamide]
26 | < 50 | CN(C)c1nc(N[C@H]2CC[C@@H](C(=O)NCc3ccccc3OC(F)F)CC2)nc2ccccc12 [Example 1184, cis-N-[2-(difluoromethoxy)benzyl]-4-{[4-(dimethylamino)quinazolin-2-yl]amino}cyclohexanecarboxamide]
27 | < 50 | CN(C)c1nc(N[C@H]2CC[C@@H](C(=O)NCc3cccc(OC(F)F)c3)CC2)nc2ccccc12 [Example 1185, cis-N-[3-(difluoromethoxy)benzyl]-4-{[4-(dimethylamino)quinazolin-2-yl]amino}cyclohexanecarboxamide]
28 | < 50 | CN(C)c1nc(N[C@H]2CC[C@@H](C(=O)NCc3cccc(OC(F)(F)F)c3)CC2)nc2ccccc12 [Example 1186, cis-4-{[4-(dimethylamino)quinazolin-2-yl)amino}-N-[3-(trifluoromethoxy)benzyl]cyclohexanecarboxamide]
29 | 50 to 200 | Cc1cc(Cl)cc(Cl)c1CNC(=O)[C@H]1CC[C@@H](Nc2nc(N(C)C)c3ccccc3n2)CC1 [Example 1187, cis-N-(2,4-dichloro-6-methylbenzyl)-4-{[4-(dimethylamino)quinazolin-2-yl]amino}cyclohexanecarboxamide]
30 | < 50 | COc1cccc(OC)c1CNC(=O)[C@H]1CC[C@@H](Nc2nc(N(C)C)c3ccccc3n2)CC1 [Example 1188, cis-N-(2,6-dimethoxybenzyl)-4-{[4-(dimethylamino)quinazolin-2-yl]amino}cyclohexanecarboxamide]
31 | < 50 | C[C@@H](NC(=O)[C@H]1CC[C@@H](Nc2nc(N(C)C)c3ccccc3n2)CC1)c1ccccc1 [Example 1189, cis-4-{[4-(dimethylamino)quinazolin-2-yl]amino}-N-[(1R)-1-phenylethyl]cyclohexanecarboxamide]
32 | < 50 | COc1ccc([C@H](C)NC(=O)[C@H]2CC[C@@H](Nc3nc(N(C)C)c4ccccc4n3)CC2)cc1 [Example 1190, cis-4-{[4-(dimethylamino)quinazolin-2-yl]amino}-N-[(1S)-1-(4-methoxyphenyl)ethyl]cyclohexanecarboxamide]
33 | < 50 | COc1ccc(C(NC(=O)[C@H]2CC[C@@H](Nc3nc(N(C)C)c4ccccc4n3)CC2)c2ccc(OC)cc2)cc1 [Example 1192, cis-N-[bis(4-methoxyphenyl)methyl]-4-{[4-(dimethylamino)quinazolin-2-yl]amino}cyclohexanecarboxamide]
34 | < 50 | CN(C)c1nc(N[C@H]2CC[C@@H](C(=O)NCc3ccccc3C(F)(F)F)CC2)nc2ccccc12 [Example 1193, cis-4-{[4-(dimethylamino)quinazolin-2-yl]amino}-N-[2-(trifluoromethyl)benzyl]cyclohexanecarboxamide]
